Assay results: US11753397B2, “Cereblon binders for the degradation of ikaros” (C4 Therapeutics, Inc., priority 2018, dated 2023)

Tested on: NCIH929.1 cells
Test: Cell viability assay (CellTiter-Glo 2.0, ATP quantification)
Format: cell-based
Details: NCIH929.1 cell viability, CellTiter-Glo 2.0, 96 hr incubation, top concentration 1 μM
How it was run: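 Cells seeded at 750/well in RPMI with 10% FBS and 0.05 mM 2-mercaptoethanol, exposed 96 h at 37 °C to 10-point half-log dilutions in duplicate, top 1 μM. Viability by CellTiter-Glo 2.0 ATP luminescence, with a day-0 read as cytostatic baseline (CT0).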

| SMILES | GI50 [nM] |
| --- | --- |
| C[C@H](C(=O)N1CCC(n2cc(CNc3cccc4c3C(=O)N(C3CCC(=O)NC3=O)C4=O)cn2)CC1)c1ccccc1 (stereo partly drawn) [Compound 51, 2-(2,6-dioxopiperidin-3-yl)-4-(((1-(1-((S)-2-phenylpropanoyl)piperidin-4-yl)-1H-pyrazol-4-yl)methyl)amino)isoindoline-1,3-dione] | < 100 |
| CC(C)(O)C(=O)N1CCC(n2cc(CNc3cccc4c3C(=O)N(C3CCC(=O)NC3=O)C4=O)cn2)CC1 (stereo not drawn) [Compound 52, 2-(2,6-dioxopiperidin-3-yl)-4-(((1-(1-(2-hydroxy-2-methylpropanoyl)piperidin-4-yl)-1H-pyrazol-4-yl)methyl)amino)isoindoline-1,3-dione] | < 100 |
| C[C@H](O)C(=O)N1CCC(n2cc(CNc3cccc4c3C(=O)N(C3CCC(=O)NC3=O)C4=O)cn2)CC1 (stereo partly drawn) [Compound 53, 2-(2,6-dioxopiperidin-3-yl)-4-(((1-(1-((S)-2-hydroxypropanoyl)piperidin-4-yl)-1H-pyrazol-4-yl)methyl)amino)isoindoline-1,3-dione] | < 100 |
| CN1CCC(C)(C(=O)N2CCC(n3cc(CNc4cccc5c4C(=O)N(C4CCC(=O)NC4=O)C5=O)cn3)CC2)CC1 (stereo not drawn) [Compound 55, 4-(((1-(1-(1,4-dimethylpiperidine-4-carbonyl)piperidin-4-yl)-1H-pyrazol-4-yl)methyl)amino)-2-(2,6-dioxopiperidin-3-yl)isoindoline-1,3-dione] | < 100 |
| CC(C(=O)N1CCC(n2cc(CNc3cccc4c3C(=O)N(C3CCC(=O)NC3=O)C4=O)cn2)CC1)(C(F)(F)F)C(F)(F)F (stereo not drawn) [Compound 56, 2-(2,6-dioxopiperidin-3-yl)-4-(((1-(1-(3,3,3-trifluoro-2-methyl-2-(trifluoromethyl)propanoyl)piperidin-4-yl)-1H-pyrazol-4-yl)methyl)amino)isoindoline-1,3-dione] | < 100 |
| O=C1CCC(N2C(=O)c3cccc(NCc4cnn(C5CCN(C(=O)[C@@H]6CCCO6)CC5)c4)c3C2=O)C(=O)N1 (stereo partly drawn) [Compound 59, 2-(2,6-dioxopiperidin-3-yl)-4-(((1-(1-((S)-tetrahydrofuran-2-carbonyl)piperidin-4-yl)-1H-pyrazol-4-yl)methyl)amino)isoindoline-1,3-dione] | < 100 |
| O=C1CCC(N2C(=O)c3cccc(NCc4cnn(C5CCN(C(=O)C6(C(F)(F)F)CC6)CC5)c4)c3C2=O)C(=O)N1 (stereo not drawn) [Compound 60, 2-(2,6-dioxopiperidin-3-yl)-4-(((1-(1-(1-(trifluoromethyl)cyclopropane-1-carbonyl)piperidin-4-yl)-1H-pyrazol-4-yl)methyl)amino)isoindoline-1,3-dione] | < 100 |
| CC1(C(=O)N2CCC(n3cc(CNc4cccc5c4C(=O)N(C4CCC(=O)NC4=O)C5=O)cn3)CC2)COC1 (stereo not drawn) [Compound 61, 2-(2,6-dioxopiperidin-3-yl)-4-(((1-(1-(3-methyloxetane-3-carbonyl)piperidin-4-yl)-1H-pyrazol-4-yl)methyl)amino)isoindoline-1,3-dione] | < 100 |
| CC1(C(=O)N2CCC(n3cc(CNc4cccc5c4C(=O)N(C4CCC(=O)NC4=O)C5=O)cn3)CC2)CCCC1 (stereo not drawn) [Compound 62, 2-(2,6-dioxopiperidin-3-yl)-4-(((1-(1-(1-methylcyclopentane-1-carbonyl)piperidin-4-yl)-1H-pyrazol-4-yl)methyl)amino)isoindoline-1,3-dione] | < 1 |
| CC1(C(=O)N2CCC(n3cc(CNc4cccc5c4C(=O)N(C4CCC(=O)NC4=O)C5=O)cn3)CC2)CCCCC1 (stereo not drawn) [Compound 63, 2-(2,6-dioxopiperidin-3-yl)-4-(((1-(1-(1-methylcyclohexane-1-carbonyl)piperidin-4-yl)-1H-pyrazol-4-yl)methyl)amino)isoindoline-1,3-dione] | < 1 |
| CC1(C(=O)N2CCC(n3cc(CNc4cccc5c4C(=O)N(C4CCC(=O)NC4=O)C5=O)cn3)CC2)CCOCC1 (stereo not drawn) [Compound 64, 2-(2,6-dioxopiperidin-3-yl)-4-(((1-(1-(4-methyltetrahydro-2H-pyran-4-carbonyl)piperidin-4-yl)-1H-pyrazol-4-yl)methyl)amino)isoindoline-1,3-dione] | < 100 |
| CC(C)(C)OC(=O)N1CCC(n2cc(CNc3cccc4c3C(=O)N(C3CCC(=O)NC3=O)C4=O)cn2)CC1 (stereo not drawn) [Compound 66, tert-butyl 4-(4-(((2-(2,6-dioxopiperidin-3-yl)-1,3-dioxoisoindolin-4-yl)amino)methyl)-1H-pyrazol-1-yl)piperidine-1-carboxylate] | < 100 |
| O=C1CCC(N2C(=O)c3cccc(NCc4cnn(C5CCN(C(=O)C6(c7ccc(F)cc7)CCCCC6)CC5)c4)c3C2=O)C(=O)N1 (stereo not drawn) [Compound 68, 2-(2,6-dioxopiperidin-3-yl)-4-(((1-(1-(1-(4-fluorophenyl)cyclohexane-1-carbonyl)piperidin-4-yl)-1H-pyrazol-4-yl)methyl)amino)isoindoline-1,3-dione] | < 100 |
| O=C1CCC(N2C(=O)c3cccc(NCc4cnn(C5CCN(C(=O)C6(c7ccccc7)COC6)CC5)c4)c3C2=O)C(=O)N1 (stereo not drawn) [Compound 69, 2-(2,6-dioxopiperidin-3-yl)-4-(((1-(1-(3-phenyloxetane-3-carbonyl)piperidin-4-yl)-1H-pyrazol-4-yl)methyl)amino)isoindoline-1,3-dione] | < 100 |
| O=C1CCC(N2C(=O)c3cccc(NCc4cnn(C5CCN(C(=O)C6(c7ccc(F)cc7)CCC6)CC5)c4)c3C2=O)C(=O)N1 (stereo not drawn) [Compound 70, 2-(2,6-dioxopiperiidn-3-yl)-4-(((1-(1-(1-(4-fluorophenyl)cyclobutane-1-carbonyl)piperidin-4-yl)-1H-pyrazol-4-yl)methyl)amino)isoindoline-1,3-dione] | < 1 |
| O=C1CCC(N2C(=O)c3cccc(NCc4cnn(C5CCN(C(=O)C6(Cc7ccccc7)CC6)CC5)c4)c3C2=O)C(=O)N1 (stereo not drawn) [Compound 71, 4-(((1-(1-(1-benzylcyclopropane-1-carbonyl)piperidin-4-yl)-1H-pyrazol-4-yl)methyl)amino)-2-(2,6-dioxopiperidin-3-yl)isoindoline-1,3-dione] | < 100 |
| O=C1CCC(N2C(=O)c3cccc(NCc4cnn(C5CCN(C(=O)C6(c7ccccc7)CC6)CC5)c4)c3C2=O)C(=O)N1 (stereo not drawn) [Compound 72, 2-(2,6-dioxopiperidin-3-yl)-4-(((1-(1-(1-phenylcyclopropane-1-carbonyl)piperidin-4-yl)-1H-pyrazol-4-yl)methyl)amino)isoindoline-1,3-dione] | < 100 |
| CC(C)(C(=O)N1CCC(n2cc(CNc3cccc4c3C(=O)N(C3CCC(=O)NC3=O)C4=O)cn2)CC1)C(F)(F)F (stereo not drawn) [Compound 73, 2-(2,6-dioxopiperidin-3-yl)-4-(((1-(1-(3,3,3-trifluoro-2,2-dimethylpropanoyl)piperidin-4-yl)-1H-pyrazol-4-yl)methyl)amino)isoindoline-1,3-dione] | < 100 |
| CC1(C(=O)N2CCC(n3cc(CNc4cccc5c4C(=O)N(C4CCC(=O)NC4=O)C5=O)cn3)CC2)CC(F)(F)C1 (stereo not drawn) [Compound 74, 4-(((1-(1-(3,3-difluoro-1-methylcyclobutane-1-carbonyl)piperidin-4-yl)-1H-pyrazol-4-yl)methyl)amino)-2-(2,6-dioxopiperidin-3-yl)isoindoline-1,3-dione] | < 100 |
| O=C1CCC(N2C(=O)c3cccc(NCc4cnn(C5CCN(C(=O)C6(C(F)(F)F)CCC6)CC5)c4)c3C2=O)C(=O)N1 (stereo not drawn) [Compound 75, 2-(2,6-dioxopiperidin-3-yl)-4-(((1-(1-(1-(trifluoromethyl)cyclobutane-1-carbonyl)piperidin-4-yl)-1H-pyrazol-4-yl)methyl)amino)isoindoline-1,3-dione] | < 1 |
| O=C1CCC(N2C(=O)c3cccc(NCc4cnn(C5CCN(C(=O)C6(c7ccc(F)cc7)CCCC6)CC5)c4)c3C2=O)C(=O)N1 (stereo not drawn) [Compound 77, 2-(2,6-dioxopiperidin-3-yl)-4-(((1-(1-(1-(4-fluorophenyl)cyclopentane-1-carbonyl)piperidin-4-yl)-1H-pyrazol-4-yl)methyl)amino)isoindoline-1,3-dione] | < 1 |
| O=C1CCC(N2C(=O)c3cccc(NCc4cnn(C5CCN(C(=O)C67CC(F)(C6)C7)CC5)c4)c3C2=O)C(=O)N1 (stereo not drawn) [Compound 78, 2-(2,6-dioxopiperidin-3-yl)-4-(((1-(1-(3-fluorobicyclo[1.1.1]pentane-1-carbonyl)piperidin-4-yl)-1H-pyrazol-4-yl)methyl)amino)isoindoline-1,3-dione] | < 100 |
| O=C1CCC(N2C(=O)c3cccc(NCc4cnn(C5CCN(C(=O)C6(F)CCC6)CC5)c4)c3C2=O)C(=O)N1 (stereo not drawn) [Compound 79, 2-(2,6-dioxopiperidin-3-yl)-4-(((1-(1-(1-fluorocyclobutane-1-carbonyl)piperidin-4-yl)-1H-pyrazol-4-yl)methyl)amino)isoindoline-1,3-dione] | < 100 |
| N#CC1(C(=O)N2CCC(n3cc(CNc4cccc5c4C(=O)N(C4CCC(=O)NC4=O)C5=O)cn3)CC2)CCC1 (stereo not drawn) [Compound 81, 1-(4-(4-(((2-(2,6-dioxopiperidin-3-yl)-1,3-dioxoisoindolin-4-yl)amino)methyl)-1H-pyrazol-1-yl)piperidine-1-carbonyl)cyclobutane-1-carbonitrile] | < 100 |
| COC1(C(=O)N2CCC(n3cc(CNc4cccc5c4C(=O)N(C4CCC(=O)NC4=O)C5=O)cn3)CC2)CCC1 (stereo not drawn) [Compound 82, 2-(2,6-dioxopiperidin-3-yl)-4-(((1-(1-(1-methoxycyclobutane-1-carbonyl)piperidin-4-yl)-1H-pyrazol-4-yl)methyl)amino)isoindoline-1,3-dione] | < 100 |
| O=C1CCC(N2C(=O)c3cccc(NCc4cnn(C5CCN(C(=O)C(F)(F)C(F)(F)F)CC5)c4)c3C2=O)C(=O)N1 (stereo not drawn) [Compound 83, 2-(2,6-dioxopiperidin-3-yl)-4-(((1-(1-(2,2,3,3,3-pentafluoropropanoyl)piperidin-4-yl)-1H-pyrazol-4-yl)methyl)amino)isoindoline-1,3-dione] | < 100 |
| O=C1CCC(N2C(=O)c3cccc(NCc4cnn(C5CCN(C(=O)C6(O)CCC6)CC5)c4)c3C2=O)C(=O)N1 (stereo not drawn) [Compound 84, 2-(2,6-dioxopiperidin-3-yl)-4-(((1-(1-(1-hydroxycyclobutane-1-carbonyl)piperidin-4-yl)-1H-pyrazol-4-yl)methyl)amino)isoindoline-1,3-dione] | < 100 |
